# Results published in ChEMBL document CHEMBL4028808, “Design and synthesis of selective CDK8/19 dual inhibitors: Discovery of 4,5-dihydrothieno[3',4':3,4]benzo[1,2-d]isothiazole derivatives” (Bioorg Med Chem, 2017).
# Tests used:
# RPMI-8226 = experiment: Antitumor activity against human RPMI8226 cells xenografted in C.B17/Icr scid/scid Jcl mouse assessed as tumor growth suppression at 2.5 mg/kg, po qd administered for 14 days measured post last dose relative to control; format: functional
# [1] = target: Mitogen-activated protein kinase kinase kinase 19 (Homo sapiens, UniProt Q56UN5); experiment: Binding affinity to partial length wild-type human YSK4 (T1019 to H1328 residues) expressed in bacterial expression system by kinome scan assay
# [2] = target: Homeodomain-interacting protein kinase 1 (Homo sapiens, UniProt Q86Z02); experiment: Binding affinity to partial length human HIPK1 (M146 to I555 residues) expressed in mammalian expression system by kinome scan assay
# [3] = target: Glycogen synthase kinase-3 beta (Homo sapiens) (UniProt P49841); experiment: Inhibition of GSK3beta (unknown origin) at 1 uM using GSK3 substrate peptide preincubated for 5 mins followed by substrate addition measured after 30 mins in presence of [gamma33P]ATP by scintillation counter method relative to control
# [4] = target: Ephrin type-A receptor 3 (Homo sapiens) (UniProt P29320); experiment: Binding affinity to partial length wild-type human EPHA3 (D604 to K889 residues) expressed in bacterial expression system assessed as unbound drug level at 300 nM by KINOMEscan assay
# Ephrin type-A receptor 3 (Homo sapiens), sequence (P29320 whole entry, the tested form may be a part): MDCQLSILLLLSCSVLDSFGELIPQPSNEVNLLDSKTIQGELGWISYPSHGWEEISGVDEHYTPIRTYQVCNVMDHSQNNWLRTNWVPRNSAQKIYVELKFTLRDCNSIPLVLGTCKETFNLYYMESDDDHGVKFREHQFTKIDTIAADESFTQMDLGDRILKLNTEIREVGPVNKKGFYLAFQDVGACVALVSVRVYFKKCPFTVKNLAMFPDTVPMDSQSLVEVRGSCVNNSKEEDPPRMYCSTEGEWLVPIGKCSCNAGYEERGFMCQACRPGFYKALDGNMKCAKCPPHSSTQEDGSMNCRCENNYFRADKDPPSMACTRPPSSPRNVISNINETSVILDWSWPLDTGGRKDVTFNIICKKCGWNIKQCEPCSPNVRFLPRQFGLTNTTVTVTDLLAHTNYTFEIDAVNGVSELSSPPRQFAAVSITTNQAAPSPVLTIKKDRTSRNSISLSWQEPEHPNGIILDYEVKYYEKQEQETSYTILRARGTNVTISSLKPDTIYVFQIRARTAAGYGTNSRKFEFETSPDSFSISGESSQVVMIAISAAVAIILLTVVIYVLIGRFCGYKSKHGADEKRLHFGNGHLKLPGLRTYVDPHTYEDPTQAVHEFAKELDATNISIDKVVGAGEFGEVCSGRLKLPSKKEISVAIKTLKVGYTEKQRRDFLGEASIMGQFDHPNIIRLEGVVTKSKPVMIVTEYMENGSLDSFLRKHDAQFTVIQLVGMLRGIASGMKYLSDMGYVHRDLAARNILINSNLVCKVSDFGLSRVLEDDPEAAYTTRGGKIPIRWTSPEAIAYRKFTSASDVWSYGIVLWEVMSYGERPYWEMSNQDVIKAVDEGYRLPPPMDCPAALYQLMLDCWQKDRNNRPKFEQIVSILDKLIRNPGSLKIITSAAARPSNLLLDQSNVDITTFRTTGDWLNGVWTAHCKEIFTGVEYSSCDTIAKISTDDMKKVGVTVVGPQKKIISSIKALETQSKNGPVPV
# Mitogen-activated protein kinase kinase kinase 19, sequence (Q56UN5 whole entry, the tested form may be a part): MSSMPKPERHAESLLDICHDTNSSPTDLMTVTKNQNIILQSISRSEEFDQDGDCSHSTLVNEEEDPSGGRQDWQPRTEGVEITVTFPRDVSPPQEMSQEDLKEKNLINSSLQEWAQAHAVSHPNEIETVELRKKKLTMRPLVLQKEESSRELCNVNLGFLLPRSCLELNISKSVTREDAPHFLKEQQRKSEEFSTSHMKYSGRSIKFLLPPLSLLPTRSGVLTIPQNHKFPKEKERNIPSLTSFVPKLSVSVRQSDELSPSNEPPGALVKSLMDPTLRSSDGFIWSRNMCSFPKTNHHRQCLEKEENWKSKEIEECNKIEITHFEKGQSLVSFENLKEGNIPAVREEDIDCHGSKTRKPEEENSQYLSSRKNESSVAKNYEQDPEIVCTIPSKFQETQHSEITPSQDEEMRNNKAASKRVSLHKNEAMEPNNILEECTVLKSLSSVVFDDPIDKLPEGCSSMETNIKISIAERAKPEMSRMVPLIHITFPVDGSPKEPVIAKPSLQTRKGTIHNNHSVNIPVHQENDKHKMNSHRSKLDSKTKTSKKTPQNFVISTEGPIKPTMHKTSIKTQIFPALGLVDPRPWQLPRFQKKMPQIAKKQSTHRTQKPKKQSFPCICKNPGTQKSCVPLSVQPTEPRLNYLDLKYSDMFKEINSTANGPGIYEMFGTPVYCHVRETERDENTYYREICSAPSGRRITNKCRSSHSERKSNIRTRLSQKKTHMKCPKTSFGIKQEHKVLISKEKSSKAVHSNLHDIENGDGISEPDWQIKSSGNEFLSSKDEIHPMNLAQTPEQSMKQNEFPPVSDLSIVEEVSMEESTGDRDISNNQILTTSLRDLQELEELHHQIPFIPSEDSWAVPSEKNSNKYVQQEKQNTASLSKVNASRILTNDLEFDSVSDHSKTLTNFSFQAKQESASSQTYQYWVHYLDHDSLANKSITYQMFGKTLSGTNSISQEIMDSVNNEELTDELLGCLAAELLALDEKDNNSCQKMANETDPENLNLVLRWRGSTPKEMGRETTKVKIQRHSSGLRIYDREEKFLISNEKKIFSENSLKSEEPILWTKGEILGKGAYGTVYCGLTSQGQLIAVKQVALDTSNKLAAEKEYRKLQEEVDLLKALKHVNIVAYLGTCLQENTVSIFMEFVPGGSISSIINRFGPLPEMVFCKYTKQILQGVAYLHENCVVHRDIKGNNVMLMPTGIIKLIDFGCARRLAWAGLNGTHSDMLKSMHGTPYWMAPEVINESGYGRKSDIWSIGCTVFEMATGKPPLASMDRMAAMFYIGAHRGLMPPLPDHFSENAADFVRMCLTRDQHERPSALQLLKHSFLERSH
# Glycogen synthase kinase-3 beta (Homo sapiens), sequence (P49841 whole entry, looked up, the tested form may be a part): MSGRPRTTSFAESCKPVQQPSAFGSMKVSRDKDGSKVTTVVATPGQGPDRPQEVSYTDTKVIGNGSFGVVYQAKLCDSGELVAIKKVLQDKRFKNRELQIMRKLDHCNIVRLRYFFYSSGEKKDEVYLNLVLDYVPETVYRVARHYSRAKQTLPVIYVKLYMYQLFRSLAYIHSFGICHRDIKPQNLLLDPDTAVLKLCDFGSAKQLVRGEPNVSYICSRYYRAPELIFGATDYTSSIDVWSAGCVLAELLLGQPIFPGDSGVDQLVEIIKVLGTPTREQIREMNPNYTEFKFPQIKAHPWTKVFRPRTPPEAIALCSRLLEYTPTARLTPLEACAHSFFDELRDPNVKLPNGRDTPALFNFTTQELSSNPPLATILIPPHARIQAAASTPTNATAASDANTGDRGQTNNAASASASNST
# Homeodomain-interacting protein kinase 1, sequence (Q86Z02 whole entry, the tested form may be a part): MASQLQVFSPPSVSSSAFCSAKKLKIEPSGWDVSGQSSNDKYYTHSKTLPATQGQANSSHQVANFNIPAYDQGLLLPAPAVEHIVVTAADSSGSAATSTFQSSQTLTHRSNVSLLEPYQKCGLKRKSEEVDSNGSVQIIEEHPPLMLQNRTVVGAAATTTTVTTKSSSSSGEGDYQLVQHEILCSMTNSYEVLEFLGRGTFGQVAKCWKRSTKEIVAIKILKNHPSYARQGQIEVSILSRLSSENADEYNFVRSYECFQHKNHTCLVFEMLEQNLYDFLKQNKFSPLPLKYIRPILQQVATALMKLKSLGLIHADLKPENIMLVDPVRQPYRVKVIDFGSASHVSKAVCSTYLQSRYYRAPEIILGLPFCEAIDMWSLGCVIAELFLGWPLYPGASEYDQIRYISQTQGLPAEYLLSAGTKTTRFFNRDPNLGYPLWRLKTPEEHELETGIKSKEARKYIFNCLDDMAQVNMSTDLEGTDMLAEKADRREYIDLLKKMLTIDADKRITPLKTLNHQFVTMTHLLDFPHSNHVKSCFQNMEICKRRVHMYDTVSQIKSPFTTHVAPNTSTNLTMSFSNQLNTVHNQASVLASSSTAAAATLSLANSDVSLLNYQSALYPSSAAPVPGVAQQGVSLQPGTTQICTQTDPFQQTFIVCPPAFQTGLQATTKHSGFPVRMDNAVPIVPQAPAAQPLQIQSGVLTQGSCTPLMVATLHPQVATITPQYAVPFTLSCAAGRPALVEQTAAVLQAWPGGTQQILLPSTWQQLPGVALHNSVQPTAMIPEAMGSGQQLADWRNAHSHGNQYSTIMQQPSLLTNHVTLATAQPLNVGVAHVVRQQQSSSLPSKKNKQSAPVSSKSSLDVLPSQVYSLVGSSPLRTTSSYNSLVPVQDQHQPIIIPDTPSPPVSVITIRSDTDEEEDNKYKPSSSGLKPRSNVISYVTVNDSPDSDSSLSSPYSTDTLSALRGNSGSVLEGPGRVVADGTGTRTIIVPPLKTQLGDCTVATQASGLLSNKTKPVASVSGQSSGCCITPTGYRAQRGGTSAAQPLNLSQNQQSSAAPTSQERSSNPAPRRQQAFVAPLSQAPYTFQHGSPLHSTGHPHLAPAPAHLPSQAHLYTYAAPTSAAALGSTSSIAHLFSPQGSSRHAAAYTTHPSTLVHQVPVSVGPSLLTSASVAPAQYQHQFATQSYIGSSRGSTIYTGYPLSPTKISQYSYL
smiles,measurement,setting,value
COCCNC(=O)c1ccc(Oc2sc(C(N)=O)c3c2-c2sncc2CC3)cn1,T/C,RPMI-8226,-1%
same,Kd,[1],97 nM
same,Kd,[2],160 nM
same,inhibition,[3],31%
same,Fu,[4],0.43%
